Measurements as given in patent US11840686B2, “Modulation of prekallikrein (PKK) expression” (Ionis Pharmaceuticals, Inc., priority 2013, dated 2023).
Strand notation (5' to 3'): a small letter for the sugar, then the base; units joined by * are phosphorothioate-linked, units joined directly phosphodiester-linked; [ ] holds rarer units or linkages, { } end groups; capitals alone tell only the bases. e = 2'-O-(2-methoxyethyl) (MOE); k = constrained ethyl (cEt); [5mC] = 5-methylcytosine; d = 2'-deoxy (DNA)

Each substance was assayed on human PKK mRNA (assay: Antisense inhibition of human PKK mRNA in HepaRG cells, 1,000 nM, MOE/deoxy/cEt oligonucleotides (Example 3)). Conditions: HepaRG cells, electroporation with 1,000 nM antisense oligonucleotide, approximately 24 hours, primer probe set RTS3454, relative to untreated control cells; experiment of Table 23.
Assay type: cell-based
How it was run: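 HepaRG cells at 20,000 per well electroporated with 1,000 nM 16-mer MOE/cEt/deoxy gapmers (phosphorothioate, 5-methylcytosine). After about 24 h, PKK mRNA measured by qRT-PCR with primer probe set RTS3454, normalized to RIBOGREEN total RNA. Reported as percent inhibition versus untreated cells.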

Substance	% inhibition [%]
547930 (eT*eG*kA*dT*dA*dG*dG*dT*dG*d[5mC]*dA*dG*dA*kT*kG*eG; antisense) [compound 547930]	48
547931 (eG*eT*kG*dA*dT*dA*dG*dG*dT*dG*d[5mC]*dA*dG*kA*kT*eG; antisense) [compound 547931]	58
547932 (e[5mC]*eG*kA*dT*dT*dT*dT*d[5mC]*d[5mC]*dA*dT*dA*d[5mC]*kA*kT*eT; antisense) [compound 547932]	33
547933 (eT*e[5mC]*kG*dA*dT*dT*dT*dT*d[5mC]*d[5mC]*dA*dT*dA*k[5mC]*kA*eT; antisense) [compound 547933]	44
547934 (e[5mC]*eT*k[5mC]*dG*dA*dT*dT*dT*dT*d[5mC]*d[5mC]*dA*dT*kA*k[5mC]*eA; antisense) [compound 547934]	38
547935 (eA*e[5mC]*kT*d[5mC]*dG*dA*dT*dT*dT*dT*d[5mC]*d[5mC]*dA*kT*kA*e[5mC]; antisense) [compound 547935]	27
547936 (eG*eA*k[5mC]*dT*d[5mC]*dG*dA*dT*dT*dT*dT*d[5mC]*d[5mC]*kA*kT*eA; antisense) [compound 547936]	44
547937 (eT*eG*kT*dG*dA*d[5mC]*dT*d[5mC]*dG*dA*dT*dT*dT*kT*k[5mC]*e[5mC]; antisense) [compound 547937]	56
547938 (eT*eT*kG*dT*dG*dA*d[5mC]*dT*d[5mC]*dG*dA*dT*dT*kT*kT*e[5mC]; antisense) [compound 547938]	56
547939 (eT*eT*kT*dG*dT*dG*dA*d[5mC]*dT*d[5mC]*dG*dA*dT*kT*kT*eT; antisense) [compound 547939]	70
547940 (eT*eT*kT*d[5mC]*dT*dT*dT*dG*dT*dG*dA*d[5mC]*dT*k[5mC]*kG*eA; antisense) [compound 547940]	71
547941 (eG*eT*kG*dT*dG*d[5mC]*d[5mC]*dA*d[5mC]*dT*dT*dT*d[5mC]*kA*kG*eA; antisense) [compound 547941]	66
547944 (eA*e[5mC]*kT*dT*dG*dG*dT*dG*dT*dG*d[5mC]*d[5mC]*dA*k[5mC]*kT*eT; antisense) [compound 547944]	54
547945 (eA*eA*k[5mC]*dT*dT*dG*dG*dT*dG*dT*dG*d[5mC]*d[5mC]*kA*k[5mC]*eT; antisense) [compound 547945]	62
547949 (eG*eT*kG*dT*dT*dT*dT*d[5mC]*dT*dT*dG*dA*dG*kG*kA*eG; antisense) [compound 547949]	6
547950 (eG*eG*kT*dG*dT*dT*dT*dT*d[5mC]*dT*dT*dG*dA*kG*kG*eA; antisense) [compound 547950]	49
547951 (eA*eG*kA*dT*dA*dT*dG*dG*dT*dG*dT*dT*dT*kT*k[5mC]*eT; antisense) [compound 547951]	25
547952 (e[5mC]*eA*kG*dA*dT*dA*dT*dG*dG*dT*dG*dT*dT*kT*kT*e[5mC]; antisense) [compound 547952]	46
547953 (e[5mC]*eT*kA*dT*dA*dT*d[5mC]*d[5mC]*dA*dG*dA*dT*dA*kT*kG*eG; antisense) [compound 547953]	16

Substance	% inhibition [%]
547954 (eT*eA*kA*dA*dA*dG*dG*d[5mC]*dT*dA*dT*dA*dT*k[5mC]*k[5mC]*eA; antisense) [compound 547954]	36
547956 (eG*eT*kT*dA*dA*dA*dA*dG*dG*d[5mC]*dT*dA*dT*kA*kT*e[5mC]; antisense) [compound 547956]	13
547957 (eG*eG*kT*dT*dA*dA*dA*dA*dG*dG*d[5mC]*dT*dA*kT*kA*eT; antisense) [compound 547957]	6
547958 (e[5mC]*eA*kG*dG*dT*dT*dA*dA*dA*dA*dG*dG*d[5mC]*kT*kA*eT; antisense) [compound 547958]	57
547959 (eG*e[5mC]*kA*dG*dG*dT*dT*dA*dA*dA*dA*dG*dG*k[5mC]*kT*eA; antisense) [compound 547959]	60
547960 (eT*eG*k[5mC]*dA*dG*dG*dT*dT*dA*dA*dA*dA*dG*kG*k[5mC]*eT; antisense) [compound 547960]	40
547961 (eT*eT*kG*d[5mC]*dA*dG*dG*dT*dT*dA*dA*dA*dA*kG*kG*e[5mC]; antisense) [compound 547961]	5
547962 (antisense eT*eT*kT*dG*d[5mC]*dA*dG*dG*dT*dT*dA*dA*dA*kA*kG*eG) [compound 547962]	16
547963 (antisense eG*eT*kT*d[5mC]*dA*dG*dG*dT*dA*dA*dA*dG*dT*kT*k[5mC]*eT) [compound 547963]	22
547964 (antisense eG*eG*kT*dT*d[5mC]*dA*dG*dG*dT*dA*dA*dA*dG*kT*kT*e[5mC]) [compound 547964]	0
547965 (antisense eG*eG*kG*dT*dT*d[5mC]*dA*dG*dG*dT*dA*dA*dA*kG*kT*eT) [compound 547965]	29
547966 (antisense eA*eG*kG*dG*dT*dT*d[5mC]*dA*dG*dG*dT*dA*dA*kA*kG*eT) [compound 547966]	13
547967 (antisense eG*eG*k[5mC]*dA*dG*dG*dG*dT*dT*d[5mC]*dA*dG*dG*kT*kA*eA) [compound 547967]	25
547968 (antisense eT*eT*kA*dG*dA*dA*dT*dG*dG*d[5mC]*dA*dG*dG*kG*kT*eT) [compound 547968]	37
547969 (antisense eT*e[5mC]*k[5mC]*d[5mC]*dG*dG*dG*dT*dA*dA*dA*dT*dT*kT*kT*eA) [compound 547969]	0
547970 (antisense e[5mC]*eT*k[5mC]*d[5mC]*d[5mC]*dG*dG*dG*dT*dA*dA*dA*dT*kT*kT*eT) [compound 547970]	42
547972 (antisense eT*e[5mC]*kA*dA*d[5mC]*dT*d[5mC]*d[5mC]*d[5mC]*dG*dG*dG*dT*kA*kA*eA) [compound 547972]	49
547973 (antisense eA*eA*kG*dT*d[5mC]*dA*dA*d[5mC]*dT*d[5mC]*d[5mC]*d[5mC]*dG*kG*kG*eT) [compound 547973]	62
547974 (antisense eA*eA*kA*dG*dT*d[5mC]*dA*dA*d[5mC]*dT*d[5mC]*d[5mC]*d[5mC]*kG*kG*eG) [compound 547974]	52

Substance	% inhibition [%]
547975 (antisense e[5mC]*eA*kA*dA*dG*dT*d[5mC]*dA*dA*d[5mC]*dT*d[5mC]*d[5mC]*k[5mC]*kG*eG) [compound 547975]	44
547976 (antisense e[5mC]*e[5mC]*kA*dA*dA*dG*dT*d[5mC]*dA*dA*d[5mC]*dT*d[5mC]*k[5mC]*k[5mC]*eG) [compound 547976]	49
547977 (antisense e[5mC]*e[5mC]*kT*d[5mC]*d[5mC]*dA*dA*dA*dG*dT*d[5mC]*dA*dA*k[5mC]*kT*e[5mC]) [compound 547977]	57
547978 (antisense e[5mC]*eT*kT*dG*dG*d[5mC]*dA*dA*dA*d[5mC]*dA*dT*dT*k[5mC]*kA*e[5mC]) [compound 547978]	71
547980 (antisense eA*eA*kG*dT*d[5mC]*dT*d[5mC]*dT*dT*dG*dG*d[5mC]*dA*kA*kA*e[5mC]) [compound 547980]	54
547981 (antisense eT*e[5mC]*kT*dT*dT*dG*dT*dG*d[5mC]*dA*dA*dG*dT*k[5mC]*kT*e[5mC]) [compound 547981]	76
547982 (antisense eA*eA*kT*d[5mC]*dA*dT*d[5mC]*dT*dT*dT*dG*dT*dG*k[5mC]*kA*eA) [compound 547982]	54
547983 (antisense eG*eA*kA*dT*d[5mC]*dA*dT*d[5mC]*dT*dT*dT*dG*dT*kG*k[5mC]*eA) [compound 547983]	56
547984 (antisense e[5mC]*eG*kA*dA*dT*d[5mC]*dA*dT*d[5mC]*dT*dT*dT*dG*kT*kG*e[5mC]) [compound 547984]	55
547985 (antisense eG*e[5mC]*kG*dA*dA*dT*d[5mC]*dA*dT*d[5mC]*dT*dT*dT*kG*kT*eG) [compound 547985]	63
547986 (antisense e[5mC]*eA*kG*d[5mC]*dG*dA*dA*dT*d[5mC]*dA*dT*d[5mC]*dT*kT*kT*eG) [compound 547986]	63
547987 (antisense eA*e[5mC]*kA*dG*d[5mC]*dG*dA*dA*dT*d[5mC]*dA*dT*d[5mC]*kT*kT*eT) [compound 547987]	64
547988 (antisense eT*eG*kA*d[5mC]*dA*dG*d[5mC]*dG*dA*dA*dT*d[5mC]*dA*kT*k[5mC]*eT) [compound 547988]	56
547989 (antisense e[5mC]*eT*kG*dA*d[5mC]*dA*dG*d[5mC]*dG*dA*dA*dT*d[5mC]*kA*kT*e[5mC]) [compound 547989]	66
547990 (antisense eA*e[5mC]*kT*dG*dA*d[5mC]*dA*dG*d[5mC]*dG*dA*dA*dT*k[5mC]*kA*eT) [compound 547990]	58
547991 (antisense eT*eA*k[5mC]*dA*dG*dT*d[5mC]*dT*dT*d[5mC]*dT*dG*dG*kG*kA*eG) [compound 547991]	0
547992 (antisense e[5mC]*e[5mC]*kT*dT*dA*d[5mC]*dA*dG*dT*d[5mC]*dT*dT*d[5mC]*kT*kG*eG) [compound 547992]	17
547993 (antisense eT*eA*kG*dA*dT*dA*dA*dT*d[5mC]*dT*dT*dA*dA*kG*kA*eA) [compound 547993]	26
